Measured values as given in the supplement of paper PMC10627819.

Key:
[1] = test system: S. aureus DSM 20231; assay: Bliss interaction score (quartile over a dose matrix) (fitness difference); higher = more antagonism (negative = synergy)
In short: (§1)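 Fitness here means normalised growth, inferred for single drugs from the combination data. Growth was OD595 at entry into stationary phase, divided by the plate's robust no-drug mean and capped at 1. The Bliss score is observed minus expected fitness, with the expectation being the product, and its quartiles span technical, biological and donor/recipient replicates.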

[2] = test system: B. subtilis 168; assay: as above
In short: as §1

[3] = test system: S. pneumoniae D39V; assay: as above
In short: as §1

[4] = test system: S. aureus Newman; assay: as above
In short: as §1

[5] = test system: S. aureus DSM 20231; assay: fitness (endpoint OD595 vs no drug) (fraction); higher = more growth
In short: (§2)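 Fitness was measured as bacterial growth in 384-well plates inoculated at OD595 0.01 (30 µl, or 55 µl for S. pneumoniae). Media were TSB, LB Lennox or CY, at 37 °C. OD595 was read every 30 min for 14 h and background-subtracted against the first reading. Fitness is OD595 at the transition into stationary phase divided by the robust mean of no-drug control wells, capped at 1.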

[6] = test system: B. subtilis 168; assay: as above
In short: as §2

[7] = test system: S. pneumoniae D39V; assay: as above
In short: as §2

[8] = test system: S. aureus Newman; assay: as above
In short: as §2
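Wherever Bliss interaction score (quartile over a dose matrix) is given: first quartile when negative (synergy) and third quartile when positive (antagonism).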
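Wherever fitness (endpoint OD595 vs no drug) is given: OD595 on entry to stationary phase over no-drug wells; at most 1.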

Cc1ncc([N+](=O)[O-])n1CCO [Metronidazole] + CCN(CC)CCOC(=O)c1ccc(N)cc1 [Procaine]
Conditions | Bliss interaction score
[1] | 0.0477
[2] | -0.0393
[3] | -0.0526
[4] | 0.0807

fitness
Conditions | partner 85.5 µg/mL | partner 171 µg/mL | partner 342 µg/mL
[5], first compound 0.625 µg/mL | 0.996 | ≥ 1 | ≥ 1
[5], first compound 1.25 µg/mL | 0.977 | ≥ 1 | ≥ 1
[5], first compound 2.5 µg/mL | 0.938 | ≥ 1 | ≥ 1
[6], first compound 0.625 µg/mL | 0.94 | 0.944 | 0.876
[6], first compound 1.25 µg/mL | 0.935 | 0.956 | 0.937
[6], first compound 2.5 µg/mL | 0.896 | 0.868 | 0.958
[7], first compound 1.073 µg/mL | 0.979 | 0.969 | 0.939
[7], first compound 2.145 µg/mL | 0.911 | 0.948 | 0.89
[7], first compound 4.29 µg/mL | 0.914 | 0.894 | 0.927
[8], first compound 0.625 µg/mL | 0.934 | 0.934 | 0.686
[8], first compound 1.25 µg/mL | 0.858 | 0.988 | –
[8], first compound 2.5 µg/mL | 0.814 | 0.876 | –

fitness, one replicate
Conditions | first compound 0.781 µg/mL | first compound 1.25 µg/mL | first compound 1.562 µg/mL | first compound 2.5 µg/mL | first compound 3.124 µg/mL | first compound 5 µg/mL
[7], partner 85.5 µg/mL | – | ≥ 1 | – | ≥ 1 | – | 0.979
[7], partner 171 µg/mL | – | ≥ 1 | – | ≥ 1 | – | ≥ 1
[7], partner 342 µg/mL | – | 0.952 | – | ≥ 1 | – | 0.95
[8], partner 85.5 µg/mL | ≥ 1 | – | ≥ 1 | – | ≥ 1 | –
[8], partner 171 µg/mL | ≥ 1 | – | ≥ 1 | – | ≥ 1 | –
[8], partner 342 µg/mL | ≥ 1 | – | ≥ 1 | – | ≥ 1 | –

COc1cccc2c1C(=O)c1c(O)c3c(c(O)c1C2=O)C[C@@](O)(C(=O)CO)C[C@@H]3O[C@H]1C[C@H](N)[C@H](O)[C@H](C)O1 [Doxorubicin] + C[C@@H]1O[C@@H]1P(=O)(O)O [Fosfomycin]
Conditions | Bliss interaction score
[1] | 0.0338
[2] | -0.142
[3] | -0.0488
[4] | 0.122

Conditions | fitness
[5], first compound 0.625 µg/mL, partner 0.781 µg/mL | 0.685
[5], first compound 0.625 µg/mL, partner 1.562 µg/mL | 0.587
[5], first compound 0.625 µg/mL, partner 3.124 µg/mL | 0.5
[5], first compound 1.25 µg/mL, partner 0.781 µg/mL | 0.681
[5], first compound 1.25 µg/mL, partner 1.562 µg/mL | 0.603
[5], first compound 1.25 µg/mL, partner 3.124 µg/mL | 0.493
[5], first compound 2.5 µg/mL, partner 0.781 µg/mL | 0.637
[5], first compound 2.5 µg/mL, partner 1.562 µg/mL | 0.506
[5], first compound 2.5 µg/mL, partner 3.124 µg/mL | 0.449
[6], first compound 0.625 µg/mL, partner 1.562 µg/mL | 0.7
[6], first compound 0.625 µg/mL, partner 3.124 µg/mL | 0.605
[6], first compound 0.625 µg/mL, partner 6.248 µg/mL | 0.412
[6], first compound 1.25 µg/mL, partner 1.562 µg/mL | 0.655
[6], first compound 1.25 µg/mL, partner 3.124 µg/mL | 0.518
[6], first compound 1.25 µg/mL, partner 6.248 µg/mL | 0.302
[6], first compound 2.5 µg/mL, partner 1.562 µg/mL | 0.369
[6], first compound 2.5 µg/mL, partner 6.248 µg/mL | 0.0432
[7], first compound 0.25 µg/mL, partner 1.25 µg/mL | 0.881
[7], first compound 0.25 µg/mL, partner 2.5 µg/mL | 0.852
[7], first compound 0.25 µg/mL, partner 5 µg/mL | 0.635
[7], first compound 0.5 µg/mL, partner 1.25 µg/mL | 0.938
[7], first compound 0.5 µg/mL, partner 2.5 µg/mL | 0.859
[7], first compound 0.5 µg/mL, partner 5 µg/mL | 0.646
[7], first compound 1 µg/mL, partner 1.25 µg/mL | 0.861
[7], first compound 1 µg/mL, partner 2.5 µg/mL | 0.823
[7], first compound 1 µg/mL, partner 5 µg/mL | 0.669
[8], first compound 0.625 µg/mL, partner 0.781 µg/mL | 0.615
[8], first compound 0.625 µg/mL, partner 1.562 µg/mL | 0.547
[8], first compound 0.625 µg/mL, partner 3.124 µg/mL | 0.212
[8], first compound 1.25 µg/mL, partner 0.781 µg/mL | 0.618
[8], first compound 1.25 µg/mL, partner 1.562 µg/mL | 0.535
[8], first compound 1.25 µg/mL, partner 3.124 µg/mL | 0.138
[8], first compound 2.5 µg/mL, partner 0.781 µg/mL | 0.595
[8], first compound 2.5 µg/mL, partner 1.562 µg/mL | 0.443
[8], first compound 2.5 µg/mL, partner 3.124 µg/mL | 0.0485

Cc1ncc([N+](=O)[O-])n1CCO [Metronidazole] + CN[C@@H]1[C@H](O)[C@H](NC)[C@H]2O[C@@]3(O)C(=O)C[C@@H](C)O[C@H]3O[C@@H]2[C@H]1O [Spectinomycin]
Conditions | Bliss interaction score
[1] | 0.0691
[2] | -0.0603
[3] | 0.044
[4] | 0.0758

fitness
Conditions | partner 2 µg/mL | partner 4 µg/mL | partner 8 µg/mL | partner 16 µg/mL
[5], first compound 0.625 µg/mL | – | 0.973 | 0.944 | 0.887
[5], first compound 1.25 µg/mL | – | 0.946 | 0.958 | 0.852
[5], first compound 2.5 µg/mL | – | 0.976 | ≥ 1 | 0.924
[6], first compound 0.625 µg/mL | 0.947 | 0.963 | 0.949 | –
[6], first compound 1.25 µg/mL | 0.973 | 0.953 | 0.889 | –
[6], first compound 2.5 µg/mL | 0.976 | 0.95 | 0.91 | –
[7], first compound 1.073 µg/mL | – | 0.94 | 0.976 | 0.909
[7], first compound 2.145 µg/mL | – | 0.946 | 0.944 | 0.881
[7], first compound 4.29 µg/mL | – | 0.901 | 0.9 | 0.878
[8], first compound 0.625 µg/mL | – | 0.94 | 0.909 | 0.929
[8], first compound 0.781 µg/mL | – | 0.893 | 0.974 | 0.91
[8], first compound 1.25 µg/mL | – | 0.98 | 0.98 | 0.932
[8], first compound 1.562 µg/mL | – | 0.93 | 0.998 | 0.928
[8], first compound 2.5 µg/mL | – | 0.951 | 0.926 | 0.926
[8], first compound 3.124 µg/mL | – | 0.895 | 0.98 | 0.935

fitness, one replicate
Conditions | first compound 0.625 µg/mL | first compound 1.25 µg/mL | first compound 2.5 µg/mL | first compound 5 µg/mL
[5], partner 32 µg/mL | 0.703 | 0.684 | 0.689 | –
[5], partner 64 µg/mL | 0.0868 | 0.121 | 0.103 | –
[7], partner 4 µg/mL | – | ≥ 1 | ≥ 1 | ≥ 1
[7], partner 8 µg/mL | – | 0.964 | 0.99 | 0.986
[8], partner 32 µg/mL | 0.685 | 0.656 | 0.596 | –
[8], partner 64 µg/mL | 0.101 | 0.147 | 0.134 | –

Cc1ncc([N+](=O)[O-])n1CCO [Metronidazole] + CC1=C\[C@@H](O)CC(=O)Cc2nc(co2)C(=O)N2CCC=C2C(=O)O[C@H](C(C)C)[C@H](C)/C=C/C(=O)NC\C=C\1 [Virginiamycin M1]
Conditions | Bliss interaction score
[1] | 0.0516
[2] | -0.0294
[3] | 0.0226
[4] | 0.0634

Conditions | fitness
[5], first compound 0.625 µg/mL, partner 0.0625 µg/mL | ≥ 1
[5], first compound 0.625 µg/mL, partner 0.125 µg/mL | ≥ 1
[5], first compound 0.625 µg/mL, partner 0.25 µg/mL | ≥ 1
[5], first compound 1.25 µg/mL, partner 0.0625 µg/mL | ≥ 1
[5], first compound 1.25 µg/mL, partner 0.125 µg/mL | ≥ 1
[5], first compound 1.25 µg/mL, partner 0.25 µg/mL | ≥ 1
[5], first compound 2.5 µg/mL, partner 0.0625 µg/mL | ≥ 1
[5], first compound 2.5 µg/mL, partner 0.125 µg/mL | ≥ 1
[5], first compound 2.5 µg/mL, partner 0.25 µg/mL | ≥ 1
[6], first compound 0.625 µg/mL, partner 0.0625 µg/mL | 0.995
[6], first compound 0.625 µg/mL, partner 0.125 µg/mL | 0.946
[6], first compound 0.625 µg/mL, partner 0.25 µg/mL | 0.956
[6], first compound 1.25 µg/mL, partner 0.0625 µg/mL | 0.951
[6], first compound 1.25 µg/mL, partner 0.125 µg/mL | 0.938
[6], first compound 1.25 µg/mL, partner 0.25 µg/mL | ≥ 1
[6], first compound 2.5 µg/mL, partner 0.0625 µg/mL | 0.929
[6], first compound 2.5 µg/mL, partner 0.125 µg/mL | 0.944
[6], first compound 2.5 µg/mL, partner 0.25 µg/mL | 0.96
[7], first compound 1.073 µg/mL, partner 0.5 µg/mL | ≥ 1
[7], first compound 1.073 µg/mL, partner 1 µg/mL | ≥ 1
[7], first compound 1.073 µg/mL, partner 2 µg/mL | ≥ 1
[7], first compound 1.25 µg/mL, partner 2 µg/mL | 0.944
[7], first compound 2.145 µg/mL, partner 0.5 µg/mL | 0.912
[7], first compound 2.145 µg/mL, partner 1 µg/mL | 0.945
[7], first compound 2.145 µg/mL, partner 2 µg/mL | 0.877
[7], first compound 2.5 µg/mL, partner 2 µg/mL | 0.94
[7], first compound 4.29 µg/mL, partner 0.5 µg/mL | ≥ 1
[7], first compound 4.29 µg/mL, partner 1 µg/mL | 0.994
[7], first compound 4.29 µg/mL, partner 2 µg/mL | ≥ 1
[7], first compound 5 µg/mL, partner 2 µg/mL | 0.946
[8], first compound 0.625 µg/mL, partner 0.0625 µg/mL | 0.97
[8], first compound 0.625 µg/mL, partner 0.125 µg/mL | 0.973
[8], first compound 0.625 µg/mL, partner 0.25 µg/mL | 0.975
[8], first compound 1.25 µg/mL, partner 0.0625 µg/mL | 0.984
[8], first compound 1.25 µg/mL, partner 0.125 µg/mL | 0.993
[8], first compound 1.25 µg/mL, partner 0.25 µg/mL | ≥ 1
[8], first compound 2.5 µg/mL, partner 0.0625 µg/mL | 0.992
[8], first compound 2.5 µg/mL, partner 0.125 µg/mL | ≥ 1
[8], first compound 2.5 µg/mL, partner 0.25 µg/mL | 0.991

fitness, one replicate
Conditions | first compound 0.625 µg/mL | first compound 1.25 µg/mL | first compound 2.5 µg/mL | first compound 5 µg/mL
[5], partner 0.5 µg/mL | 0.825 | 0.842 | 0.978 | –
[5], partner 1 µg/mL | 0.725 | 0.827 | 0.908 | –
[7], partner 0.15 µg/mL | – | ≥ 1 | ≥ 1 | ≥ 1
[7], partner 0.3 µg/mL | – | ≥ 1 | 0.987 | 0.96
[7], partner 0.5 µg/mL | – | ≥ 1 | 0.973 | ≥ 1
[7], partner 1 µg/mL | – | ≥ 1 | ≥ 1 | ≥ 1
[8], partner 0.5 µg/mL | 0.902 | 0.899 | 0.89 | –
[8], partner 1 µg/mL | 0.912 | 0.922 | ≥ 1 | –
[8], partner 2 µg/mL | 0.919 | 0.919 | 0.949 | –
